Assay results as given in patent publication US20240075064A1, “COMPOSITIONS AND METHODS FOR EXPANSION OF T CELLS AND TUMOR INFILTRATING LYMPHOCYTES” (OBSIDIAN THERAPEUTICS, INC., priority 2021, published 2024).

Test system: IL15 signaling pathway
Experiment: Phospho-flow cytometry assay of IL15 expression and signaling (pSTAT5, pS6)
Format: cell-based, human
Conditions: regulated mbIL15 TILs, ACZ 0.1-100, 18 hours
Description: Pre-REP TILs were prepared similarly to the methods of Example 1-3 and 9, and unengineered and mbIL15 TIL generated accordingly as described in Examples 1-3 and 9. Engagement of the IL15 signaling pathway results in phosphorylation of signal transducers downstream, including the transcription factor protein STATS and ribosomal protein S6. […] Next, the regulated mbIL15 TILs were regulated for 18 hours in the presence of a range of concentrations of ACZ including 0.1, 1, 2.5, 5, 10, 25, 100 as well as vehicle control. The regulated mbIL15 TILs were then collected for staining and FACS analysis.
Briefly, cells were stained using antibodies for CD3, CD4, CD8, IL15 and a Live/Dead marker. Then cells were fixed in 2% formaldehyde (BD Cytofix) and permeabilized using a methanol-based buffer (BD Phospho Perm III Buffer) before staining with antibodies specific for phosphorylated STATS (Biolegend) and S6 (Cell Signaling Technology). Cells were acquired on the BD Symphony and analyzed using FlowJo software.
In order to compare different strategies for IL15 expression, TILs were utilized that constitutively express mbIL15 and regulated mbIL15 TILs. Cryopreserved unengineered TILs, constitutive mbIL15 TILs, and regulated mbIL15 TILs, from three human donors were thawed and then rested in ACZ-free media for 24 hours. […] Cells were acquired on the BD Fortessa and analyzed using FlowJo software.

CC(=O)Nc1nnc(S(N)(=O)=O)s1 [ACZ, acetazolamide]
staining intensity of pSTAT5 and pS6: increased with higher concentrations of ACZ
